These results are taken from US20240034736A1, “HSD17B13 INHIBITORS AND USES THEREOF” (FL2022-001, Inc., priority 2020, published 2024).

Each structure is given as a SMILES string. Bounds are passed on as bounds.

Recombinant human HSD17B13 enzyme, sequence (Q7Z5P4 20-300): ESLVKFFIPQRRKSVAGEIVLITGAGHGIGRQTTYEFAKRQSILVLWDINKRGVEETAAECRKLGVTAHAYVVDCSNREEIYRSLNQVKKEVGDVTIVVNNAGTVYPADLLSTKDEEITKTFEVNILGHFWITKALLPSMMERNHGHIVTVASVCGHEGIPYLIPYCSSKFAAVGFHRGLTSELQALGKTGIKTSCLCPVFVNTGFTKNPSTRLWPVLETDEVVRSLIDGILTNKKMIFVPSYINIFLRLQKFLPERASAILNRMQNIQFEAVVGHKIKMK

In the first assay the target is Recombinant human HSD17B13 enzyme (Homo sapiens (Human), UniProt Q7Z5P4). Description: HSD17b13 NAD(P)H-Glo Biochemical Assay. Conditions: 50 uM estradiol, 1 mM NAD+; read-out: HSD17β13 IC50. The gist of the method:
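Recombinant human HSD17B13 was pre-incubated with inhibitor for 20 min at RT in 20 mM Tris pH 7.4 with 0.002% Tween-20 and 0.02% BSA. Reaction then ran with 50 uM estradiol and 1 mM NAD+ (final) for 3 h at 37° C. NADH formed was detected by NAD(P)H-Glo luminescence after 1 h at RT.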
The IC50 is the midpoint of a concentration-inhibition curve. On to `Cc1nn(-c2cc(C(F)(F)F)c(F)c(O)c2F)c2cnc(N3CCN(S(C)(=O)=O)CC34CC4)cc12` [Compound 19.53, 2,6-Difluoro-3-(3-methyl-5-(7-(methylsulfonyl)-4,7-diazaspiro[2.5]octan-4-yl)-1H-pyrazolo[3,4-c]pyridine-1-yl)-5-(trifluoromethyl)phenol], for which the IC50 was less than 0.1 µM.
Same read-out and setting: then `CCN(c1cc2c(C)nn(-c3cc(C(F)(F)F)c(F)c(O)c3F)c2cn1)C1CCOCC1` [Compound 19.54, 3-(5-(Ethyl(tetrahydro-2H-pyran-4-yl)amino)-3-methyl-1H-pyrazolo[3,4-c]pyridine-1-yl)-2,6-difluoro-5-(trifluoromethyl)phenol], with less than 0.1 µM.
Regarding `Cc1nn(-c2cc(C(F)(F)F)c(F)c(O)c2F)c2cnc(N3CCC(Oc4ccccc4)CC3)cc12` [Compound 19.55, 2,6-Difluoro-3-(3-methyl-5-(4-phenoxypiperidin-1-yl)-1H-pyrazolo[3,4-c]pyridine-1-yl)-5-(trifluoromethyl)phenol], the IC50 fell in the range of 0.1 to 1 µM.
Consider `Cc1nn(-c2cc(C(F)(F)F)c(F)c(O)c2F)c2cnc(N3CCN(S(=O)(=O)c4ccccc4)CC3)cc12` [Compound 19.56, 2,6-Difluoro-3-(3-methyl-5-(4-(phenylsulfonyl)piperazin-1-yl)-1H-pyrazolo[3,4-c]pyridine-1-yl)-5-(trifluoromethyl)phenol], for which the IC50 was less than 0.1 µM.
As to `Cc1nn(-c2cc(C(F)(F)F)c(F)c(O)c2F)c2cnc(N3CCN(S(=O)(=O)c4cnn(C)c4)CC3)cc12` [Compound 19.57, 2,6-Difluoro-3-(3-methyl-5-(4-((1-methyl-1H-pyrazol-4-yl)sulfonyl)piperazin-1-yl)-1H-pyrazolo[3,4-c]pyridin-1-yl)-5-(trifluoromethyl)phenol], the IC50 is less than 0.1 µM.
The same measure, in the same setting: with `COCCOC1CCN(c2cc3c(C)nn(-c4cc(C(F)(F)F)c(F)c(O)c4F)c3cn2)CC1` [Compound 19.58, 2,6-Difluoro-3-(5-(4-(2-methoxyethoxy)piperidin-1-yl)-3-methyl-1H-pyrazolo[3,4-c]pyridin-1-yl)-5-(trifluoromethyl)phenol] the figure was less than 0.1 µM; with `Cc1nn(-c2cc(C(F)(F)F)c(F)c(O)c2F)c2cnc(N3CCC(OCC4CC4)CC3)cc12` [Compound 19.59, 3-(5-(4-(Cyclopropylmethoxy)piperidin-1-yl)-3-methyl-1H-pyrazolo[3,4-c]pyridine-1-yl)-2,6-difluoro-5-(trifluoromethyl)phenol], 0.1 to 1 µM.
The same measure, in the same setting: then `Cc1nn(-c2cc(C(F)(F)F)c(F)c(O)c2F)c2cnc(N3CCC(OCCN(C)C)CC3)cc12` [Compound 19.60, 3-(5-(4-(2-(Dimethylamino)ethoxy)piperidin-1-yl)-3-methyl-1H-pyrazolo[3,4-c]pyridine-1-yl)-2,6-difluoro-5-(trifluoromethyl)phenol], with 0.1 to 1 µM; and `Cc1nn(-c2cc(O)c(F)cc2C#N)c2cnc(N(C)C3CCOCC3)cc12` [Compound 19.62, 5-Fluoro-4-hydroxy-2-(3-methyl-5-(methyl(tetrahydro-2H-pyran-4-yl)amino)-1H-pyrazolo[3,4-c]pyridin-1-yl)benzonitrile], with 0.1 to 1 µM; and `Cc1nn(-c2cc(C(F)(F)F)c(F)c(O)c2F)c2cnc(N3CCN(c4ccccc4)CC3)cc12` [Compound 19.63, 2,6-Difluoro-3-(3-methyl-5-(4-phenylpiperazin-1-yl)-1H-pyrazolo[3,4-c]pyridin-1-yl)-5-(trifluoromethyl)phenol], with 0.1 to 1 µM.
With `Cc1nn(-c2cc(C(F)(F)F)c(F)c(O)c2F)c2cnc(N3CCN(c4cnn(C)c4)CC3)cc12` [Compound 19.64, 2,6-Difluoro-3-(3-methyl-5-(4-(1-methyl-1H-pyrazol-4-yl)piperazin-1-yl)-1H-pyrazolo[3,4-c]pyridin-1-yl)-5-(trifluoromethyl)phenol], the IC50 was 0.1 to 1 µM.
For the molecule `Cc1nn(-c2cc(C(F)(F)F)c(F)c(O)c2F)c2cnc(N3CCOCC34CCC4)cc12` [Compound 19.65, 2,6-Difluoro-3-(3-methyl-5-(8-oxa-5-azaspiro[3.5]nonan-5-yl)-1H-pyrazolo[3,4-c]pyridin-1-yl)-5-(trifluoromethyl)phenol], the IC50 is less than 0.1 µM.
In the case of `Cc1nn(-c2cc(C(F)(F)F)c(F)c(O)c2F)c2cc(F)c(N(C)C3CCOCC3)nc12` [Compound 19.66, 2,6-Difluoro-3-(6-fluoro-3-methyl-5-(methyl(tetrahydro-2H-pyran-4-yl)amino)-1H-pyrazolo[4,3-b]pyridin-1-yl)-5-(trifluoromethyl)phenol], the half-maximal inhibitory concentration (IC50) is less than 0.1 µM.
Regarding `Cc1nn(-c2cc(C(F)(F)F)c(F)c(O)c2F)c2cc(F)c(N3CCOCC34CC4)cc12` [Compound 19.67, 2,6-Difluoro-3-(6-fluoro-3-methyl-5-(7-oxa-4-azaspiro[2.5]octan-4-yl)-1H-indazol-1-yl)-5-(trifluoromethyl)phenol], the concentration for half-maximal inhibition (IC50) is less than 0.1 µM.
On to `Cc1nn(-c2cc(C(F)(F)F)c(F)c(O)c2F)c2cc(F)c(N(C)C3CCOCC3)cc12` [Compound 19.68, 2,6-Difluoro-3-(6-fluoro-3-methyl-5-(methyl(tetrahydro-2H-pyran-4-yl)amino)-1H-indazol-1-yl)-5-(trifluoromethyl)phenol], for which the IC50 is less than 0.1 µM.
As for `Cc1nn(-c2cc(C(F)(F)F)c(F)c(O)c2F)c2ccc(N(C)C3CCOCC3)cc12` [Compound 19.69, 2,6-Difluoro-3-(3-methyl-5-(methyl(tetrahydro-2H-pyran-4-yl)amino)-1H-indazol-1-yl)-5-(trifluoromethyl)phenol], the IC50 is less than 0.1 µM.
In the case of `CN(c1ccc2c(cnn2-c2cc(C(F)(F)F)c(F)c(O)c2F)c1)C1CCOCC1` [Compound 19.70, 2,6-Difluoro-3-(5-(methyl(tetrahydro-2H-pyran-4-yl)amino)-1H-indazol-1-yl)-5-(trifluoromethyl)phenol], the IC50 was less than 0.1 µM.
As for `CN(c1ccc2c(c1)c(C(F)(F)F)nn2-c1cc(C(F)(F)F)c(F)c(O)c1F)C1CCOCC1` [Compound 19.71, 2,6-Difluoro-3-(5-(methyl(tetrahydro-2H-pyran-4-yl)amino)-3-(trifluoromethyl)-1H-indazol-1-yl)-5-(trifluoromethyl)phenol], the IC50 fell in the range of 0.1 to 1 µM.
Regarding `COc1nn(-c2cc(C(F)(F)F)c(F)c(O)c2F)c2ccc(N(C)C3CCOCC3)cc12` [Compound 19.72, 2,6-Difluoro-3-(3-methoxy-5-(methyl(tetrahydro-2H-pyran-4-yl)amino)-1H-indazol-1-yl)-5-(trifluoromethyl)phenol], the 50% inhibitory concentration (IC50) fell in the range of 0.1 to 1 µM.
For `CCc1nn(-c2cc(C(F)(F)F)c(F)c(O)c2F)c2ccc(N(C)C3CCOCC3)cc12` [Compound 19.73, 3-(3-Ethyl-5-(methyl(tetrahydro-2H-pyran-4-yl)amino)-1H-indazol-1-yl)-2,6-difluoro-5-(trifluoromethyl)phenol], the IC50 lay in the range of 0.1 to 1 µM.
For `CC(C)c1nn(-c2cc(C(F)(F)F)c(F)c(O)c2F)c2ccc(N(C)C3CCOCC3)cc12` [Compound 19.74, 2,6-Difluoro-3-(3-isopropyl-5-(methyl(tetrahydro-2H-pyran-4-yl)amino)-1H-indazol-1-yl)-5-(trifluoromethyl)phenol], the IC50 was in the range of 0.1 to 1 µM.
For the molecule `CN(c1ccc2c(c1)c(C1CC1)nn2-c1cc(C(F)(F)F)c(F)c(O)c1F)C1CCOCC1` [Compound 19.75, 3-(3-Cyclopropyl-5-(methyl(tetrahydro-2H-pyran-4-yl)amino)-1H-indazol-1-yl)-2,6-difluoro-5-(trifluoromethyl)phenol], the IC50 was 0.1 to 1 µM.
As for `CN(C)c1nn(-c2cc(C(F)(F)F)c(F)c(O)c2F)c2ccc(N(C)C3CCOCC3)cc12` [Compound 19.76, 3-(3-(Dimethylamino)-5-(methyl(tetrahydro-2H-pyran-4-yl)amino)-1H-indazol-1-yl)-2,6-difluoro-5-(trifluoromethyl)phenol], the 50% inhibitory concentration (IC50) is 0.1 to 1 µM.
Same read-out and setting: with `COC1CCN(c2ncc3c(n2)c(C)nn3-c2cc(C(F)(F)F)c(F)c(O)c2F)CC1` [Compound 19.77, 2,6-Difluoro-3-(5-(4-methoxypiperidin-1-yl)-3-methyl-1H-pyrazolo[4,3-d]pyrimidin-1-yl)-5-(trifluoromethyl)phenol] the figure was less than 0.1 µM; with `Cc1nn(-c2cc(C(F)(F)F)c(F)c(O)c2F)c2cnc(N(C)C3CCOCC3)nc12` [Compound 19.78, 2,6-Difluoro-3-(3-methyl-5-(methyl(tetrahydro-2H-pyran-4-yl)amino)-1H-pyrazolo[4,3-d]pyrimidin-1-yl)-5-(trifluoromethyl)phenol], less than 0.1 µM.
Still for that read-out and setting: then `Cc1nn(-c2cc(C(F)(F)F)c(F)c(O)c2F)c2cnc(N3CC(C)(C)OC(C)(C)C3)nc12` [Compound 19.79, 2,6-Difluoro-3-(3-methyl-5-(2,2,6,6-tetramethylmorpholino)-1H-pyrazolo[4,3-d]pyrimidin-1-yl)-5-(trifluoromethyl)phenol], with less than 0.1 µM; and `Oc1c(F)c(-n2ncc3nc(N4CCOCC45CC5)ncc32)cc(C(F)(F)F)c1F` [Compound 19.80, 3-(5-(7-Oxa-4-azaspiro[2.5]octan-4-yl)-1H-pyrazolo[4,3-d]pyrimidin-1-yl)-2,6-difluoro-5-(trifluoromethyl)phenol], with 0.1 to 1 µM; and `Cc1nn(-c2cc(C(F)(F)F)c(F)c(O)c2F)c2cnc(N3CCOC4(CC4)C3)nc12` [Compound 19.81, 2,6-Difluoro-3-(3-methyl-5-(4-oxa-7-azaspiro[2.5]octan-7-yl)-1H-pyrazolo[4,3-d]pyrimidin-1-yl)-5-(trifluoromethyl)phenol], with less than 0.1 µM.

The same assay, now with this note: read-out: HSD17β13 inhibition at 30 uM.
For orientation: inhibition means the percentage by which the read-out fell short of the control. In the case of `Cc1nn(-c2cc(O)ccc2C#N)c2cnc(N(C)C3CCOCC3)cc12` [Compound 19.61, 4-Hydroxy-2-(3-methyl-5-(methyl(tetrahydro-2H-pyran-4-yl)amino)-1H-pyrazolo[3,4-c]pyridin-1-yl)benzonitrile], the inhibition at 30 µM was determined as 55%.
